Data: patent publication US10844051B2, “Substituted oxazoles for the treatment of cancer” (THE ROYAL INSTITUTION FOR THE ADCANCEMENT OF …, priority 2015, dated 2020)

How the values were obtained:
Assay type in all cases: cell-based
[1] = system: phosphorylation of ERK in HCT-116 cells; assay: Western blot, phosphorylation of ERK in HCT-116 cells; settings: 10 μM, 24 hours
Method: HCT-116 cells were exposed to DMSO vehicle or compounds at designated doses for 24 hours.

ETV1 = molecular target: T1, ETV1 (Homo sapiens, UniProt P50549); assay: ETV1-dependent reporter assay in HEK293 cells; settings: 48 hours
T1 construct: expressed in transfected cells; host or cells: HEK293
T1 sequence (P50549 1-477): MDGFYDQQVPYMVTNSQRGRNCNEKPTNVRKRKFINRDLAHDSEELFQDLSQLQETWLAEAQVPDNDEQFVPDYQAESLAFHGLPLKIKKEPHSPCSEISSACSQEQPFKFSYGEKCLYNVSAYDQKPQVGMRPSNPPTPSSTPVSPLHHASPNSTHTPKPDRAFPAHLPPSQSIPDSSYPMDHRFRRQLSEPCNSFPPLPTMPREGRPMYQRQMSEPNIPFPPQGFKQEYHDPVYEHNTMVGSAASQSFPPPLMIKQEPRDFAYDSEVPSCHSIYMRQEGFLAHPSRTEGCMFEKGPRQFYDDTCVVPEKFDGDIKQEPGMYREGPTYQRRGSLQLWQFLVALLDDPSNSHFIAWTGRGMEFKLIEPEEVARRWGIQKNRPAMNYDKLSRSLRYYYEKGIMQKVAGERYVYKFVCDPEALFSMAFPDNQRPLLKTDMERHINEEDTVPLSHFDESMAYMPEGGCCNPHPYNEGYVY
Method: (§1) HEK293 cells were transiently transfected with empty vector (for the NT) or ERG-expressing plasmid as well as pRL-TK (internal control) and PUx3-Luc reporter. Cells were then exposed to DMSO vehicle or compounds at designated doses for 48 hours. Experiments were done in triplicate.
Experiments were done as described above in FIG. 1.1a) except that ERG plasmid was replaced by ETV1 plasmid.

ERG = molecular target: T2, ERG (Homo sapiens, UniProt P11308); assay: ERG-dependent reporter assay in HEK293 cells; parameters: expressed in transfected cells; host or cells: HEK293; settings: PUx3-Luc reporter, 48 hours, designated doses
T2 sequence (P11308 1-486 isoform P11308-3): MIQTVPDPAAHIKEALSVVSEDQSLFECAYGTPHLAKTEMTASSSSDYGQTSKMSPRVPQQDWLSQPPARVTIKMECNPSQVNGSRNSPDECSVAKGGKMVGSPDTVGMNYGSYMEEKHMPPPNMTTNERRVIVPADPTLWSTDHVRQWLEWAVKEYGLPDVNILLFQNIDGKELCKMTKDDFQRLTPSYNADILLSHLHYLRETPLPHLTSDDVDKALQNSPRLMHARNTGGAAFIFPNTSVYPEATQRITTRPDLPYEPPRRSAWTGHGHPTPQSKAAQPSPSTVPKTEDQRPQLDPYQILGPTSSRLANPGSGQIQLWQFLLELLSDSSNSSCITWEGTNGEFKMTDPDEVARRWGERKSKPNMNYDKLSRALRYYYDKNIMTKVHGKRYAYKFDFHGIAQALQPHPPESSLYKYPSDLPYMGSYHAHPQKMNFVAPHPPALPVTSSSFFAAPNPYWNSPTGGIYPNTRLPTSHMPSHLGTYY
Method: as §1

human GATA2 = molecular target: T3, human GATA2 (Homo sapiens, UniProt P23769); assay: GATA2-dependent reporter assay in IHH cells; settings: GATA-Luc reporter, 48 h
T3 construct: expressed in transfected cells; host or cells: IHH
T3 sequence (P23769 1-480): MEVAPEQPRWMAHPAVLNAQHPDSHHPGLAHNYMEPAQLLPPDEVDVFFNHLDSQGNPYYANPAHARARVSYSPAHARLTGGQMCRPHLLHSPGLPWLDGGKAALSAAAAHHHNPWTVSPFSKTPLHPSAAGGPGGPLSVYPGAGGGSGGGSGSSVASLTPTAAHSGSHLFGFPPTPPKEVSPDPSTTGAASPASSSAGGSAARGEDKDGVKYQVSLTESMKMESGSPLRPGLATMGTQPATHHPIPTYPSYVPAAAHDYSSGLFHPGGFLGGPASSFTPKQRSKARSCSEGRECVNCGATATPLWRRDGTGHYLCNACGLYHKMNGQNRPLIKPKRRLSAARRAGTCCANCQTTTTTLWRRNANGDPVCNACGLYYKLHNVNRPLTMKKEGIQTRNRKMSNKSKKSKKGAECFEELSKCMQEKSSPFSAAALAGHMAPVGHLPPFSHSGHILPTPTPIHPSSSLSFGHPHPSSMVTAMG
Method: K7174 is a known GATA2 inhibitor. The IHH cells were transiently transfected with empty vector (for the NT) or human GATA2-expressing plasmid as well as pRL-TK (internal control) and GATA-Luc reporter plasmids. Cells were exposed to DMSO vehicle or compounds for 48 h. Experiments were in triplicate.

human GATA3 = molecular target: T4, human GATA3 (Homo sapiens, UniProt P23771); assay: GATA3-dependent reporter assay in IHH cells; settings: 48 hours
T4 construct: expressed in transfected cells; host or cells: IHH
T4 sequence (P23771 whole entry): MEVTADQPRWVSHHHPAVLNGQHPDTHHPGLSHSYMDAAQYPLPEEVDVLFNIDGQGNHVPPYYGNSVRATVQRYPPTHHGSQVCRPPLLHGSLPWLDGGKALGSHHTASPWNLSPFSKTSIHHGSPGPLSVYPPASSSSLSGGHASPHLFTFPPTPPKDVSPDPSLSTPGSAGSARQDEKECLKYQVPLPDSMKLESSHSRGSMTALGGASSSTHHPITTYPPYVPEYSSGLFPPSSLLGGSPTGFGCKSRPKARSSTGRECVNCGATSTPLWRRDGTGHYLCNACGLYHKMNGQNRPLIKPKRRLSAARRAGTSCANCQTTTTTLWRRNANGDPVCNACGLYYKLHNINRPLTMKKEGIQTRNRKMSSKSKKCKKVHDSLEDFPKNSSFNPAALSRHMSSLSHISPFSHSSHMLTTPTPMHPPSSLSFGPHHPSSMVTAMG
Method: The IHH cells were transiently transfected with empty vector (for the NT) or human GATA3-expressing plasmid as well as pRL-TK (internal control) and GATA-Luc reporter plasmids. Cells were exposed to DMSO vehicle or compounds for 48 hours. Experiments were done in triplicate.

hSTING and/or mSTING = assay: hSTING- or mSTING-dependent ISRE-luc reporter assay in 293T cells; settings: 24 hours
Method: ISRE-luc (reporter), pRL-TK (internal control) and hSTING- or mSTING-expressing plasmids were transiently transfected into 293T cells. Cells were exposed to DMSO vehicle control or compounds for 24 hours. Experiments were done in triplicate.

[2] = system: phosphorylation of ERK in Panc 10.05 cells; assay: Western blot, phosphorylation of ERK in Panc 10.05 cells; settings: 10 μM, 24 hours
Method: C-PARP, cleaved PARP. Panc10.05 cells were exposed to DMSO vehicle or compounds at designated doses for 24 hours.
Panc10.05 cells were exposed to DMSO vehicle or compounds at designated doses for 24 hours.

human STING (hSTING) = molecular target: T5, human STING (hSTING) (Homo sapiens, UniProt Q86WV6); assay: hSTING ISRE-luc reporter assay in 293T cells; settings: 24 hours
T5 construct: expressed in transfected cells; host or cells: 293T
T5 sequence (Q86WV6 whole entry H232R): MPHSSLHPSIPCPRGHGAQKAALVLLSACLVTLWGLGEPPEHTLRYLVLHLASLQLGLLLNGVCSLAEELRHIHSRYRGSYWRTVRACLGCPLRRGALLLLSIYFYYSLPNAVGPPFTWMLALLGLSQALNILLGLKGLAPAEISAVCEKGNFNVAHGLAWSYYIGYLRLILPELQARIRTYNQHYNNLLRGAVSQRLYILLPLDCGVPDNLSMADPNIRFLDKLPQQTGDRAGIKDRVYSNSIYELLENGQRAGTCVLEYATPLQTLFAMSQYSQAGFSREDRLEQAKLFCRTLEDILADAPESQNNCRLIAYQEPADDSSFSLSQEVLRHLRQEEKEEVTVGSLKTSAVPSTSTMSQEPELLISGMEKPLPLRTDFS
Method: ISRE-luc (reporter), pRL-TK (internal control) and hSTING-expressing plasmids were transiently transfected into 293T cells. Cells were exposed to DMSO vehicle control or compounds for 24 hours. Experiments were done in triplicate.

| Compound | ETV1 inhibition in ETV1-dependent reporter assay (ETV1) | ERG inhibition in ERG-dependent reporter assay (ERG) | GATA2 inhibition in GATA2-dependent reporter assay (human GATA2) | also measured |
| --- | --- | --- | --- | --- |
| OC1(c2cccc(C(F)(F)F)c2)CCN(Cc2nc(-c3cccc(F)c3)c(-c3cccc(F)c3)[nH]2)CC1 [Compound 1209] |  |  |  | suppression of phosphorylation of ERK (Western blot) [1]: potently suppressed phosphorylation of ERK |
| Clc1ccccc1-c1nc(Cc2c[nH]c3ccccc23)oc1-c1ccccc1Cl [Compound 662] | ETV1 inhibitors | ERG inhibitors |  |  |
| c1ccc(-c2nc(CNCCc3c[nH]c4ccccc34)oc2-c2ccccc2)cc1 [Compound 795] |  |  | GATA2 inhibitors | activity against GATA3 in GATA3-dependent reporter assay (human GATA3; 10 μM): inactive against GATA3; activation of hSTING and/or mSTING in ISRE-luc reporter assay (hSTING and/or mSTING): activate hSTING and/or mSTING |
| COc1ccc(-c2nc(Cc3c[nH]c4ccccc34)oc2-c2ccc(O)cc2)cc1 [Compound 697] | ETV1 inhibitors | ERG inhibitors |  |  |
| Oc1cccc(-c2nc(CCc3c[nH]c4ccccc34)oc2-c2cccc(O)c2)c1 [Compound 675] | ETV1 inhibitors | ERG inhibitors | GATA2 inhibitors | activity against GATA3 in GATA3-dependent reporter assay (human GATA3; 10 μM): inactive against GATA3 |
| Fc1cccc(-c2nc(CN3CCC(c4noc5ccccc45)CC3)[nH]c2-c2cccc(F)c2)c1 [Compound 1100] |  |  |  | activation of hSTING and/or mSTING in ISRE-luc reporter assay (hSTING and/or mSTING): activate hSTING and/or mSTING; suppression of phosphorylation of ERK (Western blot) [2]: potently suppressed phosphorylation of ERK |
| COc1ccc(CC/C(=C/C(=O)N2CCC(O)(c3cccc(C(F)(F)F)c3)CC2)c2ccccc2)cc1F [Compound 1200] |  |  |  | suppression of phosphorylation of ERK (Western blot) [2]: potently suppressed phosphorylation of ERK |
| COc1ccc(-c2oc(Cc3c[nH]c4ccccc34)nc2-c2ccc(O)cc2)cc1 [Compound 699] |  | ERG inhibitors |  |  |
| COc1cccc(-c2oc(CCCc3c[nH]c4ccccc34)nc2-c2ccc[nH]2)c1 [Compound 830] | ETV1 inhibitors |  | GATA2 inhibitors | activation of hSTING in ISRE-luc reporter assay (human STING (hSTING)): activate hSTING |
| Fc1cccc(-c2nc(Cc3c[nH]c4ccccc34)oc2-c2cccc(F)c2)c1 [Compound 650] | ETV1 inhibitors |  | GATA2 inhibitors | activation of hSTING in ISRE-luc reporter assay (human STING (hSTING)): activate hSTING; activity against GATA3 in GATA3-dependent reporter assay (human GATA3; 10 μM): active against GATA3 |
| Oc1cccc(-c2nc(CCCc3c[nH]c4ccccc34)oc2-c2cccc(O)c2)c1 [Compound 676] |  |  | GATA2 inhibitors | activation of hSTING in ISRE-luc reporter assay (human STING (hSTING)): activate human STING (hSTING); activity against GATA3 in GATA3-dependent reporter assay (human GATA3; 10 μM): inactive against GATA3; activity against GATA3 in GATA3-dependent reporter assay (human GATA3; compounds at 5 μM): inactive against GATA3 |
| FC(F)(F)c1ccccc1-c1nc(Cc2c[nH]c3ccccc23)oc1-c1ccccc1C(F)(F)F [Compound 659] |  | ERG inhibitors |  |  |
| COc1ccc(CC/C(=C/C(=O)N2CCC(O)(c3ccccc3)CC2)c2ccc(Cl)cc2)cc1F [Compound 1306] |  |  |  | suppression of phosphorylation of ERK (Western blot) [1]: potently suppressed phosphorylation of ERK |
| COc1ccc2[nH]c(C)c(Cc3nc(-c4ccccc4)c(-c4ccccc4)o3)c2c1 [Compound 639] |  | ERG inhibitors |  |  |
| Fc1ccccc1-c1nc(CCCc2c[nH]c3ccccc23)oc1-c1ccccc1F [Compound 678] |  | ERG inhibitors |  | activation of hSTING in ISRE-luc reporter assay (human STING (hSTING)): activate hSTING |
| Cc1cccc(-c2nc(Cc3c[nH]c4ccccc34)oc2-c2cccc(C)c2)c1 [Compound 651] | ETV1 inhibitors | ERG inhibitors |  |  |
| C(=C\c1nc(-c2ccccc2)c(-c2ccccc2)o1)/c1ccoc1 [Compound 686] |  |  | GATA2 inhibitors | activity against GATA3 in GATA3-dependent reporter assay (human GATA3; 10 μM): active against GATA3 |
| O=C1Nc2ccccc2C1CCCc1nc(-c2cccc(F)c2)c(-c2cccc(F)c2)o1 (stereo not drawn) [Compound 770] |  |  | GATA2 inhibitors | activation of hSTING in ISRE-luc reporter assay (human STING (hSTING)): activate human STING (hSTING); activity against GATA3 in GATA3-dependent reporter assay (human GATA3; compounds at 5 μM): inactive against GATA3 |
| Fc1cccc(-c2oc(Cc3c[nH]c4ccccc34)nc2-c2ccco2)c1 [Compound 838] | ETV1 inhibitors |  | GATA2 inhibitors | activation of hSTING in ISRE-luc reporter assay (human STING (hSTING)): activate hSTING |
| FC(F)(F)c1cccc(/C=C/c2nc(-c3ccccc3)c(-c3ccccc3)o2)c1 [Compound 693] |  |  | GATA2 inhibitors | activation of hSTING in ISRE-luc reporter assay (human STING (hSTING)): activate hSTING; activity against GATA3 in GATA3-dependent reporter assay (human GATA3; 10 μM): inactive against GATA3 |
| FC(F)(F)c1cccc(Cc2nc(-c3ccccc3)c(-c3ccccc3)o2)c1 [Compound 687] |  |  | GATA2 inhibitors | activity against GATA3 in GATA3-dependent reporter assay (human GATA3; 10 μM): inactive against GATA3 |
| Clc1ccc(-c2nc(Cc3c[nH]c4ccccc34)oc2-c2ccc(Cl)cc2)cc1 [Compound 661] | ETV1 inhibitors | ERG inhibitors |  |  |
| N#CCN(CCc1c[nH]c2ccccc12)Cc1nc(-c2ccccc2)c(-c2ccccc2)[nH]1 [Compound 1187] |  |  |  | suppression of phosphorylation of ERK (Western blot) [1]: potently suppressed phosphorylation of ERK; suppression of phosphorylation of ERK (Western blot) [2]: potently suppressed phosphorylation of ERK |
| C(=N\c1oc(-c2ccccc2)nc1Sc1ccccc1)/c1ccccc1 [Compound V151] |  | ERG inhibitors |  |  |
| COc1cccc(N2CCN(C(=O)C/C(=C/Cc3ccc(OC)c(F)c3)c3ccccc3)CC2)c1 [Compound 1237] |  |  |  | suppression of phosphorylation of ERK (Western blot) [1]: potently suppressed phosphorylation of ERK; suppression of phosphorylation of ERK (Western blot) [2]: potently suppressed phosphorylation of ERK |
